Measurements reported in patent US9808003B2, “Herbicidally active 2-(substituted-phenyl)-cyclopentane-1,3-dione compounds and derivatives thereof” (Syngenta Limited, priority 2013, dated 2017).

Experiments:
Assay in all cases: Test 1A glasshouse assay, post-emergence herbicidal activity
Format in all cases: in vivo
[1] = system: Alopecurus myosuroides (ALOMY); settings: Alopecurus myosuroides, 312 h, application rate 250 g/ha, 13 days after application, visual (100%=total damage; 0%=no damage), read-out: Post-emergence Herbicidal Activity (% Phytotoxicity) ALOMY
Method in brief: (§1)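 Post-emergence: plants sprayed after 8 days' glasshouse growth (24/16° C, 14 h light, 65% humidity) with acetone/water (50:50) formulation containing 0.5% Tween 20. Visual % phytotoxicity (0 = none, 100 = total damage) scored 13 days after application.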

[2] = system: Avena fatua (AVEFA); settings: Avena fatua, 312 h, application rate 250 g/ha, 13 days after application, visual (100%=total damage; 0%=no damage), read-out: Post-emergence Herbicidal Activity (% Phytotoxicity) AVEFA
Method in brief: as §1

[3] = system: Echinochloa crus-galli (ECHCG); settings: Echinochloa crus-galli, 312 h, application rate 250 g/ha, 13 days after application, visual (100%=total damage; 0%=no damage), read-out: Post-emergence Herbicidal Activity (% Phytotoxicity) ECHCG
Method in brief: as §1

[4] = system: Lolium perenne (LOLPE); settings: Lolium perenne, 312 h, application rate 250 g/ha, 13 days after application, visual (100%=total damage; 0%=no damage), read-out: Post-emergence Herbicidal Activity (% Phytotoxicity) LOLPE
Method in brief: as §1

Q: `Cc1cc(C)c(C2C(=O)CC(CCNC(=O)c3cccnc3C(F)(F)F)C2=O)c(C)c1` (stereo not drawn) [Compound A152] was tested. Which pest or weed control at 250 g/ha [1] did it give?
A: The pest or weed control at 250 g/ha was 80%.

Q: What about the pest or weed control at 250 g/ha [2] of the same compound?
A: Its pest or weed control at 250 g/ha is 70%.

Q: And the pest or weed control at 250 g/ha [3]?
A: Its pest or weed control at 250 g/ha is 80%.

Q: And the pest or weed control at 250 g/ha [4]?
A: The pest or weed control at 250 g/ha was 70%.

Q: `Cc1cc(C)c(C2=C(OC(=O)N3CCCC3)CC(CCNC(=O)c3ccc(Br)cn3)C2=O)c(C)c1` (stereo not drawn) [Compound P22] was tested. Which pest or weed control at 250 g/ha [1] did it give?
A: The pest or weed control at 250 g/ha was 90%.

Q: And the pest or weed control at 250 g/ha [2]?
A: Its pest or weed control at 250 g/ha is 100%.

Q: And the pest or weed control at 250 g/ha [3]?
A: Its pest or weed control at 250 g/ha is 100%.

Q: What about the pest or weed control at 250 g/ha [4] of the same compound?
A: The pest or weed control at 250 g/ha was 100%.

Q: With `Cc1cc(Oc2ncc(Cl)cc2F)cc(C)c1C1C(=O)CC(CCNC(=O)c2ccccn2)C1=O` (stereo not drawn) [Compound A126A] as the compound, how does the pest or weed control at 250 g/ha [1] read?
A: The pest or weed control at 250 g/ha was 90%.

Q: And the pest or weed control at 250 g/ha [2]?
A: Its pest or weed control at 250 g/ha is 90%.

Q: And the pest or weed control at 250 g/ha [3]?
A: Its pest or weed control at 250 g/ha is 90%.

Q: And the pest or weed control at 250 g/ha [4]?
A: Its pest or weed control at 250 g/ha is 90%.

Q: Which pest or weed control at 250 g/ha [1] does the source give for `CC#Cc1cc(C)c(C2C(=O)CC(CCNC(=O)c3ccccn3)C2=O)c(CC)c1` (stereo not drawn) [Compound A84, N-[2-[3-(2-ethyl-6-methyl-4-prop-1-ynyl-phenyl)-2,4-dioxo-cyclopentyl]ethyl]pyridine-2-carboxamide] here?
A: The pest or weed control at 250 g/ha was 100%.

Q: And the pest or weed control at 250 g/ha [2]?
A: Its pest or weed control at 250 g/ha is 100%.

Q: What about the pest or weed control at 250 g/ha [3] of the same compound?
A: The pest or weed control at 250 g/ha was 100%.

Q: What about the pest or weed control at 250 g/ha [4] of the same compound?
A: The pest or weed control at 250 g/ha was 100%.

Q: Which results are given for `Cc1cc(C)c(C2C(=O)CC(CCNC(=O)c3nccc4ccccc34)C2=O)c(C)c1` (stereo not drawn) [Compound A63]?
A: pest or weed control at 250 g/ha [1]: 90%; pest or weed control at 250 g/ha [2]: 90%; pest or weed control at 250 g/ha [3]: 90%; pest or weed control at 250 g/ha [4]: 100%

Q: What does the source list for `Cc1cc(C)c(C2C(=O)CC(CCNC(=O)C3CCC3)C2=O)c(C)c1` (stereo not drawn) [Compound A8]?
A: pest or weed control at 250 g/ha [1]: 60%; pest or weed control at 250 g/ha [2]: 70%; pest or weed control at 250 g/ha [3]: 80%; pest or weed control at 250 g/ha [4]: 90%

Q: Which pest or weed control at 250 g/ha [1] does the source give for `Cc1ccnc(C(=O)NCCC2CC(=O)C(c3c(C)cc(-n4cc(Cl)cn4)cc3C)C2=O)c1` (stereo not drawn) [Compound A156] here?
A: Its pest or weed control at 250 g/ha is 50%.

Q: What about the pest or weed control at 250 g/ha [2] of the same compound?
A: Its pest or weed control at 250 g/ha is 90%.

Q: What about the pest or weed control at 250 g/ha [3] of the same compound?
A: Its pest or weed control at 250 g/ha is 100%.

Q: What about the pest or weed control at 250 g/ha [4] of the same compound?
A: Its pest or weed control at 250 g/ha is 90%.

Q: What does the source list for `O=C(NCCC1CC(=O)C(c2c(Cl)cc(-c3ccc(F)cc3)cc2Cl)C1=O)c1cccc(F)n1` (stereo not drawn) [Compound A165]?
A: pest or weed control at 250 g/ha [1]: 90%; pest or weed control at 250 g/ha [2]: 100%; pest or weed control at 250 g/ha [3]: 100%; pest or weed control at 250 g/ha [4]: 100%

Q: For `Cc1cc(-n2cc(Cl)cn2)cc(C)c1C1=C(OC(=O)N2CCCC2)CC(CCNC(=O)c2ccccn2)C1=O` (stereo not drawn) [Compound P21], which pest or weed control at 250 g/ha [1] is on record?
A: Its pest or weed control at 250 g/ha is 80%.

Q: And the pest or weed control at 250 g/ha [2]?
A: Its pest or weed control at 250 g/ha is 80%.

Q: And the pest or weed control at 250 g/ha [3]?
A: Its pest or weed control at 250 g/ha is 100%.

Q: And the pest or weed control at 250 g/ha [4]?
A: Its pest or weed control at 250 g/ha is 70%.

Q: `Cc1cc(C)c(C2C(=O)CC(CCNC(=O)c3ccc(Cl)nc3Cl)C2=O)c(C)c1` (stereo not drawn) [Compound A24] was tested. Which pest or weed control at 250 g/ha [1] did it give?
A: The pest or weed control at 250 g/ha was 80%.

Q: And the pest or weed control at 250 g/ha [2]?
A: Its pest or weed control at 250 g/ha is 80%.

Q: What about the pest or weed control at 250 g/ha [3] of the same compound?
A: Its pest or weed control at 250 g/ha is 80%.

Q: And the pest or weed control at 250 g/ha [4]?
A: Its pest or weed control at 250 g/ha is 90%.

Q: With `CCC(CC1CC(=O)C(c2c(C)cc(C)cc2C)C1=O)NC(=O)c1ccccc1` (stereo not drawn) [Compound A88] as the compound, how does the pest or weed control at 250 g/ha [1] read?
A: The pest or weed control at 250 g/ha was 80%.

Q: What about the pest or weed control at 250 g/ha [2] of the same compound?
A: Its pest or weed control at 250 g/ha is 90%.

Q: And the pest or weed control at 250 g/ha [3]?
A: The pest or weed control at 250 g/ha was 100%.

Q: What about the pest or weed control at 250 g/ha [4] of the same compound?
A: The pest or weed control at 250 g/ha was 100%.

Q: `Cc1cc(C)c(C2C(=O)CC(CCNC(=O)c3ccc(F)cc3F)C2=O)c(C)c1` (stereo not drawn) [Compound A17] was tested. Which pest or weed control at 250 g/ha [1] did it give?
A: Its pest or weed control at 250 g/ha is 80%.

Q: What about the pest or weed control at 250 g/ha [2] of the same compound?
A: The pest or weed control at 250 g/ha was 90%.

Q: And the pest or weed control at 250 g/ha [3]?
A: The pest or weed control at 250 g/ha was 100%.

Q: What about the pest or weed control at 250 g/ha [4] of the same compound?
A: The pest or weed control at 250 g/ha was 100%.

Q: Which results are given for `Cc1cc(C)c(C2C(=O)CC(CCNC(=O)c3ccc(C(F)(F)F)nc3)C2=O)c(C)c1` (stereo not drawn) [Compound A29]?
A: pest or weed control at 250 g/ha [1]: 80%; pest or weed control at 250 g/ha [2]: 90%; pest or weed control at 250 g/ha [3]: 80%; pest or weed control at 250 g/ha [4]: 80%

Q: `COCc1nc(C2CC2)c(C(=O)NCCC2CC(=O)C(c3c(C)cc(C)cc3C)C2=O)s1` (stereo not drawn) [Compound A174] was tested. Which pest or weed control at 250 g/ha [1] did it give?
A: The pest or weed control at 250 g/ha was 90%.

Q: What about the pest or weed control at 250 g/ha [2] of the same compound?
A: The pest or weed control at 250 g/ha was 100%.

Q: What about the pest or weed control at 250 g/ha [3] of the same compound?
A: Its pest or weed control at 250 g/ha is 90%.

Q: And the pest or weed control at 250 g/ha [4]?
A: The pest or weed control at 250 g/ha was 100%.

Q: With `Cc1cc(C)c(C2C(=O)CC(CCNC(=O)c3n[nH]c4ccccc34)C2=O)c(C)c1` (stereo not drawn) [Compound A74] as the compound, how does the pest or weed control at 250 g/ha [1] read?
A: The pest or weed control at 250 g/ha was 90%.

Q: What about the pest or weed control at 250 g/ha [2] of the same compound?
A: Its pest or weed control at 250 g/ha is 30%.

Q: What about the pest or weed control at 250 g/ha [3] of the same compound?
A: Its pest or weed control at 250 g/ha is 70%.

Q: What about the pest or weed control at 250 g/ha [4] of the same compound?
A: The pest or weed control at 250 g/ha was 80%.

Q: What does the source list for `Cc1cc(C)c(C2C(=O)CC(CCNC(=O)c3ccc(F)c(Br)n3)C2=O)c(C)c1` (stereo not drawn) [Compound A186]?
A: pest or weed control at 250 g/ha [1]: 100%; pest or weed control at 250 g/ha [2]: 90%; pest or weed control at 250 g/ha [3]: 100%; pest or weed control at 250 g/ha [4]: 100%

Q: With `Cc1cc(C)c(C2C(=O)CC(CCNC(=O)c3ccc(C)nc3Cl)C2=O)c(C)c1` (stereo not drawn) [Compound A167] as the compound, how does the pest or weed control at 250 g/ha [1] read?
A: The pest or weed control at 250 g/ha was 60%.

Q: And the pest or weed control at 250 g/ha [2]?
A: The pest or weed control at 250 g/ha was 30%.

Q: And the pest or weed control at 250 g/ha [3]?
A: The pest or weed control at 250 g/ha was 90%.

Q: What about the pest or weed control at 250 g/ha [4] of the same compound?
A: The pest or weed control at 250 g/ha was 70%.

Q: Which pest or weed control at 250 g/ha [1] does the source give for `Cc1cc(C)c(C2C(=O)CC(CCNC(=O)c3ncc(C(F)(F)F)cc3Cl)C2=O)c(C)c1` (stereo not drawn) [Compound A43] here?
A: Its pest or weed control at 250 g/ha is 100%.

Q: What about the pest or weed control at 250 g/ha [2] of the same compound?
A: Its pest or weed control at 250 g/ha is 100%.

Q: And the pest or weed control at 250 g/ha [3]?
A: Its pest or weed control at 250 g/ha is 100%.

Q: And the pest or weed control at 250 g/ha [4]?
A: The pest or weed control at 250 g/ha was 100%.
